Experimental data from US20160346249A1 (priority 2012, published 2016).

Tests used:
[1] = system: FMO, human liver microsome (HLM); test: FMO dependent metabolism (pre-incubation temperature), human liver microsomes
Method: The microsomal incubation mixtures (ca. 0.2 mL) were prepared in triplicate in 0.1M potassium phosphate buffer (pH 7.4) containing 0.25 mg/mL microsomal protein (RLM and HLM), 1 mM EDTA, 4 mM MgCl2, and […]. Incubation mixtures were pre-incubated aerobically in a shaking water bath at 37° C. and 45° C. respectively for ca. 5 minutes. The reaction was initiated by the addition of NADPH (final concentration of 1 mM). […] For the positive controls, benzydamine (Sigma-Aldrich, St. Louis, Mo.) (final concentration 200 μM) was used in the incubation mixture. For the negative controls, water was used in the incubation mixtures instead of microsome protein. The mixtures were kept at ca. −20° C. before analysis by LC-MS/MS.
The incubation of benzydamine (positive control, 200 μM) was carried out concurrently and the formation of benzydamine N-oxide was monitored by LC-MS/MS.

[2] = molecular target: T1, human recombinant MAO-B (Homo sapiens, UniProt P27338); test: Metabolism by recombinant MAO-B; assay type: in vitro ADME
T1 construct: purchased BD Biosciences, Woburn, Mass
T1 sequence (P27338 1-520): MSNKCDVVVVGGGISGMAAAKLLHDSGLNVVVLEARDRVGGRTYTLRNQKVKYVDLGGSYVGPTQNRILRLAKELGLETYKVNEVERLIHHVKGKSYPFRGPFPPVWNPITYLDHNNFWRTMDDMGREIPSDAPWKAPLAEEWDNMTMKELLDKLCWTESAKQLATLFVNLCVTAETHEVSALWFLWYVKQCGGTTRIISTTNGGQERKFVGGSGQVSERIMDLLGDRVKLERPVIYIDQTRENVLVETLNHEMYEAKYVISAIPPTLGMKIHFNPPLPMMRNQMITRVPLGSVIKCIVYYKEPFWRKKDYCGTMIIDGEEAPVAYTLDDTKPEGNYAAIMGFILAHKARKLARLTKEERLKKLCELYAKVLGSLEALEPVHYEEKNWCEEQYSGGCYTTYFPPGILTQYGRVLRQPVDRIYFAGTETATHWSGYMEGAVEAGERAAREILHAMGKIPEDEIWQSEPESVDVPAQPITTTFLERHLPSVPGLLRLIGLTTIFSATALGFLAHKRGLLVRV
Method: Incubation systems (ca. 0.2 mL) of human recombinant MAO-A (1.0 mg/mL) and MAO-B (1.0 mg/mL) (BD Biosciences, Woburn, Mass.) were prepared in triplicated 0.1 M potassium phosphate buffer (pH 7.4) (BD Biosciences, Woburn, Mass.). […] The negative samples were prepared as described above, with the exception that instead of HLM, HLmito, or recombinant enzymes, water was added to the incubation mixture.

[3] = Dog oral cardiovascular (radiotelemetry) study; assay type: in vivo
Method: There were four male and four female dogs per group. Surgical implantation of radiotelemetry devices occurred under anesthesia approximately 1 week prior to study initiation. The test article was administered according to a Latin square design such that each radiotelemetry-implanted dog received each treatment once, with a 7-day washout period between doses. Clinical examinations and detailed physical examinations were performed, and individual body weights were recorded on dosing days.

[4] = in vivo; conditions: Crl:CD-1(ICR) BR, mouse, po; for AUC(0-t): AUC0-24
[5] = Acute intravenous or oral mouse bioavailability study; assay type: in vivo; conditions: plasma, fasted male mice, oral 6 mg/kg vs IV 5 mg/kg
Method: Fasted male mice were used in this study. Concentrations were determined using an LC/MS/MS assay following liquid-liquid extraction of plasma samples. Bioavailability was calculated using the mean normalized AUC0-∞ values obtained following oral administration of 6 mg/kg relative to the mean normalized AUC0-∞ at 5 mg/kg IV.

[6] = 13-week rat toxicity and toxicokinetic study; assay type: in vivo; conditions: for AUC(0-t): read-out: AUC0-24
Method: In two separate experiments, toxicology and toxicokinetic studies were performed. […] Blood samples were collected on Day 0 and Day 87 of the study from up to 3 animals/gender/group.
For toxicology assessment, clinical observations, body weight and food consumptions measures were noted periodically during the study. At termination, clinical pathology evaluations (hematology and serum chemistry) were performed, necropsies conducted, selected organs were weighed, and selected tissues examined microscopically.

[7] = female, Crl:CD (SD)IGS BR, rat, in vivo, po, 10 mg/kg/day, females, 10 mg/kg/day, Day 0
[8] = female, Crl:CD(SD)IGS BR, rat, in vivo, po, 10 mg/kg/day, females, 10 mg/kg/day, Day 87
[9] = female, Crl:CD(SD)IGS BR, rat, in vivo, po, 25 mg/kg/day, females, 25 mg/kg/day, Day 0
[10] = female, Crl:CD(SD)IGS BR, rat, in vivo, po, 25 mg/kg/day, females, 25 mg/kg/day, Day 87
[11] = female, Crl:CD(SD)IGS BR, rat, in vivo, po, 60 mg/kg/day, females, 60 mg/kg/day, Day 0
[12] = female, Crl:CD(SD)IGS BR, rat, in vivo, po, 60 mg/kg/day, females, 60 mg/kg/day, Day 87
[13] = male, Crl:CD(SD)IGS BR, rat, in vivo, po, 10 mg/kg/day, males, 10 mg/kg/day, Day 0
[14] = male, Crl:CD(SD)IGS BR, rat, in vivo, po, 10 mg/kg/day, males, 10 mg/kg/day, Day 87
[15] = male, Crl:CD(SD)IGS BR, rat, in vivo, po, 25 mg/kg/day, males, 25 mg/kg/day, Day 0
[16] = male, Crl:CD(SD)IGS BR, rat, in vivo, po, 25 mg/kg/day, males, 25 mg/kg/day, Day 87
[17] = male, Crl:CD(SD)IGS BR, rat, in vivo, po, 60 mg/kg/day, males, 60 mg/kg/day, Day 0
[18] = male, Crl:CD(SD)IGS BR, rat, in vivo, po, 60 mg/kg/day, males, 60 mg/kg/day, Day 87

For O=C1NCC2(c3ccc(Cl)c(Cl)c3)CC12 (stereo not drawn) [EB-10101, 5-(3,4-dichloro-phenyl)-3-aza-bicyclo[3.1.0]hexan-2-one], the “FMO mediation of formation” value [1] was “not FMO-mediated in humans” and the “MAO-B mediation of formation” value [2] was “not MAO-B mediated”.
With Clc1ccc([C@]23CNC[C@H]2C3)cc1Cl [amitifadine, (+)-1-(3,4-dichlorophenyl)-3-azabicyclo[3.1.0]hexane] the “change in QTcV interval” value ([3]; 10 mg/kg oral) was < 2%, the NOEL ([3]; single oral capsule) was 10 mg/kg and the AUC(0-t) ([4]; female, 10 mg/kg/day) was 2490 ng·h/mL. For the same molecule, the Cmax ([4]; female, 10 mg/kg/day) was 323 ng/mL, the Tmax ([4]; female, 10 mg/kg/day) was 2 h and the AUC(0-t) ([4]; female, 30 mg/kg/day) was 9920 ng·h/mL. It also gave a Cmax ([4]; female, 30 mg/kg/day) of 1140 ng/mL, a Tmax ([4]; female, 30 mg/kg/day) of 2 h and an AUC(0-t) ([4]; female, 100 mg/kg/day) of 20200 ng·h/mL. It also gave a Tmax ([4]; female, 100 mg/kg/day) of 2 h, a Cmax ([4]; female, 150 mg/kg/day) of 4940 ng/mL and a Tmax ([4]; female, 150 mg/kg/day) of 2 h. The AUC(0-t) ([4]; male, 10 mg/kg/day) was 1970 ng·h/mL, the Cmax ([4]; male, 10 mg/kg/day) was 261 ng/mL and the Tmax ([4]; male, 10 mg/kg/day) was 1 h. The AUC(0-t) ([4]; male, 30 mg/kg/day) was 12800 ng·h/mL, the Cmax ([4]; male, 30 mg/kg/day) was 1060 ng/mL and the Tmax ([4]; male, 30 mg/kg/day) was 1 h. For the same molecule, the AUC(0-t) ([4]; male, 100 mg/kg/day) was 22300 ng·h/mL, the Cmax ([4]; male, 100 mg/kg/day) was 3900 ng/mL and the Tmax ([4]; male, 100 mg/kg/day) was 2 h. The AUC(0-t) ([4]; male, 150 mg/kg/day) was 71100 ng·h/mL, the Cmax ([4]; male, 150 mg/kg/day) was 5610 ng/mL and the Tmax ([4]; male, 150 mg/kg/day) was 1 h. The bioavailability [5] was ~16%, the “test article-related deaths (number of females)” value ([6]; 60 mg/kg/day, first week) was “Three” and the “female vs male AUC0-24 and Cmax difference” value ([6]; all dose groups) was “up to 85%”. The NOAEL at 13 weeks ([6]; both sexes, Crl:CD(SD)IGS BR, rat, in vivo, oral gavage, 13 weeks) was 10 mg/kg/day, the Tmax [6, 7] was 1 h and the AUC(0-t) [6, 7] was 10900 ng·h/mL. For the same molecule, the AUC(0-t) ([6]; female, Crl:CD(SD)IGS BR, rat, in vivo, oral, 10 mg/kg/day, females, 10 mg/kg/day, Day 87) was 14400 ng·h/mL, the Cmax [6, 8] was 1850 ng/mL and the Tmax [6, 8] was 1 h. It also gave a Cmax [6, 9] of 2810 ng/mL, a Tmax [6, 9] of 2 h and an AUC(0-t) [6, 9] of 31000 ng·h/mL. It also gave a Cmax [6, 10] of 3700 ng/mL, a Tmax [6, 10] of 2 h and an AUC(0-t) [6, 10] of 30200 ng·h/mL. It also gave a Cmax [6, 11] of 6600 ng/mL, a Tmax [6, 11] of 2 h and an AUC(0-t) [6, 11] of 54400 ng·h/mL. It also gave a Cmax [6, 12] of 6530 ng/mL, a Tmax [6, 12] of 2 h and an AUC(0-t) [6, 12] of 88100 ng·h/mL. For the same molecule, the “decrease in mean cumulative body weight gain vs control” value (from here on “decrease”) ([6]; females, 25 mg/kg/day) was 13%, the “decrease” value ([6]; females, 60 mg/kg/day) was 13% and the AUC(0-t) ([6]; male, Crl:CD(SD)IGS BR, rat, in vivo, oral, 10 mg/kg/day, males, 10 mg/kg/day, Day 87) was 8130 ng·h/mL. It also gave a Cmax [6, 13] of 863 ng/mL, a Tmax [6, 13] of 2 h and an AUC(0-t) [6, 13] of 5940 ng·h/mL. For the same molecule, the Cmax [6, 14] was 1120 ng/mL, the Tmax [6, 14] was 1 h and the Cmax [6, 15] was 2360 ng/mL. For the same molecule, the Tmax [6, 15] was 2 h, the AUC(0-t) [6, 15] was 17400 ng·h/mL and the Cmax [6, 16] was 2490 ng/mL. The Tmax [6, 16] was 2 h, the AUC(0-t) [6, 16] was 22000 ng·h/mL and the Cmax [6, 17] was 3680 ng/mL. The Tmax [6, 17] was 1 h, the AUC(0-t) [6, 17] was 36300 ng·h/mL and the Cmax [6, 18] was 5010 ng/mL. For the same molecule, the Tmax [6, 18] was 1 h, the AUC(0-t) [6, 18] was 60100 ng·h/mL and the “decrease” value ([6]; males, 25 mg/kg/day) was 16%. The “decrease” value ([6]; males, 60 mg/kg/day) was 30%.
